Measured values as given in ChEMBL document CHEMBL1201862, “PubChem BioAssay data set” (2004).
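Tested at 5 concentrations; 48 h exposure; 96-well plates; endpoints linearly interpolated, else capped at highest concentration. Abbreviation: GI50, concentration required for 50% inhibition of growth.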 Active and inactive are the calls of the source. Rule as the data show it: active = GI50 up to about 1.1 µM and inactive = higher.

Columns and labels:
Test in all cases: growth of human tumour cells (NCI), 48 h
786-0 = test system: 786-0
A498 = test system: A498
A549 = test system: A549
ACHN = test system: ACHN
BT-549 = test system: BT-549
CAKI-1 = test system: CAKI-1
CCRF-CEM = test system: CCRF-CEM
COLO 205 = test system: COLO 205
DU-145 = test system: DU-145
EKVX = test system: EKVX
HCC 2998 = test system: HCC 2998
HCT-116 = test system: HCT-116
HCT-15 = test system: HCT-15
HL-60 = test system: HL-60
HOP-62 = test system: HOP-62
HOP-92 = test system: HOP-92
HT-29 = test system: HT-29
Hs-578T = test system: Hs-578T
IGROV-1 = test system: IGROV-1
KM12 = test system: KM12
LOX IMVI = test system: LOX IMVI
M14 = test system: M14
MCF7 = test system: MCF7
MDA-MB-231 = test system: MDA-MB-231
MDA-MB-435 = test system: MDA-MB-435
MDA-N = test system: MDA-N
Malme-3M = test system: Malme-3M
NCI-H226 = test system: NCI-H226
NCI-H23 = test system: NCI-H23
NCI-H460 = test system: NCI-H460
NCI-H522 = test system: NCI-H522
NCI/ADR-RES = test system: NCI/ADR-RES
OVCAR-3 = test system: OVCAR-3
OVCAR-4 = test system: OVCAR-4
OVCAR-5 = test system: OVCAR-5
OVCAR-8 = test system: OVCAR-8
PC-3 = test system: PC-3
RXF 393 = test system: RXF 393
SF-268 = test system: SF-268
SF-295 = test system: SF-295
SF-539 = test system: SF-539
SK-MEL-28 = test system: SK-MEL-28
SK-MEL-2 = test system: SK-MEL-2
SK-MEL-5 = test system: SK-MEL-5
SK-OV-3 = test system: SK-OV-3
SN12C = test system: SN12C
SNB-19 = test system: SNB-19
SNB-75 = test system: SNB-75
SW-620 = test system: SW-620
T47D = test system: T47D
TK-10 = test system: TK-10
U-251 = test system: U-251
UACC-257 = test system: UACC-257
UACC-62 = test system: UACC-62
UO-31 = test system: UO-31
K562 = test system: K562
MOLT-4 = test system: MOLT-4
RPMI-8226 = test system: RPMI-8226

SMILES: OC(CCN1CCN(CCOC(c2ccccc2)c2ccccc2)CC1)c1ccc(Br)cc1 (centres undefined)
- GI50 (786-0): 10.7 µM (inactive)
- GI50 (A498): 3.72 µM (inactive)
- GI50 (A549): 14.9 µM (inactive)
- GI50 (ACHN): 10.8 µM (inactive)
- GI50 (BT-549): 13.3 µM (inactive)
- GI50 (CAKI-1): 12.2 µM (inactive)
- GI50 (CCRF-CEM): 12.7 µM (inactive)
- GI50 (COLO 205): 1.71 µM (inactive)
- GI50 (DU-145): 16 µM (inactive)
- GI50 (EKVX): 11 µM (inactive)
- GI50 (HCC 2998): 1.73 µM (inactive)
- GI50 (HCT-116): 11.2 µM (inactive)
- GI50 (HCT-15): 6.43 µM
- GI50 (HL-60): 10.1 µM (inactive)
- GI50 (HOP-62): 15.1 µM (inactive)
- GI50 (HOP-92): 10.7 µM (inactive)
- GI50 (HT-29): 4.27 µM (inactive)
- GI50 (Hs-578T): 16 µM (inactive)
- GI50 (IGROV-1): 10.9 µM (inactive)
- GI50 (KM12): 11.4 µM (inactive)
- GI50 (LOX IMVI): 10 µM (inactive)
- GI50 (M14): 3.27 µM (inactive)
- GI50 (MCF7): 13.3 µM (inactive)
- GI50 (MDA-MB-231): 11.7 µM (inactive)
- GI50 (MDA-MB-435): 11 µM (inactive)
- GI50 (MDA-N): 10.9 µM (inactive)
- GI50 (Malme-3M): 11.7 µM (inactive)
- GI50 (NCI-H226): 15 µM (inactive)
- GI50 (NCI-H23): 14 µM (inactive)
- GI50 (NCI-H460): 8.11 µM (inactive)
- GI50 (NCI-H522): 14.3 µM (inactive)
- GI50 (NCI/ADR-RES): 8.36 µM (inactive)
- GI50 (OVCAR-3): 12.6 µM (inactive)
- GI50 (OVCAR-4): 12.6 µM (inactive)
- GI50 (OVCAR-5): 14.9 µM (inactive)
- GI50 (OVCAR-8): 6.25 µM (inactive)
- GI50 (PC-3): 10.9 µM (inactive)
- GI50 (RXF 393): 9.38 µM (inactive)
- GI50 (SF-268): 14.8 µM (inactive)
- GI50 (SF-295): 15.6 µM (inactive)
- GI50 (SF-539): 12.5 µM (inactive)
- GI50 (SK-MEL-28): 7.69 µM (inactive)
- GI50 (SK-MEL-2): 12.3 µM (inactive)
- GI50 (SK-MEL-5): 3.53 µM (inactive)
- GI50 (SK-OV-3): 13.1 µM (inactive)
- GI50 (SN12C): 11.8 µM (inactive)
- GI50 (SNB-19): 15.8 µM (inactive)
- GI50 (SNB-75): 12.8 µM (inactive)
- GI50 (SW-620): 16.8 µM (inactive)
- GI50 (T47D): 10.4 µM (inactive)
- GI50 (TK-10): 13.7 µM (inactive)
- GI50 (U-251): 11.9 µM (inactive)
- GI50 (UACC-257): 3.47 µM (inactive)
- GI50 (UACC-62): 10.6 µM (inactive)
- GI50 (UO-31): 2.38 µM (inactive)

SMILES: Cn1c(=O)c2c(nc3sc4ccccc4c(=O)n32)n(C)c1=O
- GI50 (786-0): > 100 µM (inactive)
- GI50 (A498): > 100 µM (inactive)
- GI50 (ACHN): > 100 µM (inactive)
- GI50 (BT-549): > 100 µM (inactive)
- GI50 (CAKI-1): > 100 µM (inactive)
- GI50 (COLO 205): > 100 µM (inactive)
- GI50 (DU-145): > 100 µM (inactive)
- GI50 (EKVX): > 100 µM (inactive)
- GI50 (HCC 2998): > 100 µM (inactive)
- GI50 (HCT-116): > 100 µM (inactive)
- GI50 (HCT-15): > 100 µM
- GI50 (HL-60): > 100 µM (inactive)
- GI50 (HOP-62): > 100 µM (inactive)
- GI50 (HOP-92): > 100 µM (inactive)
- GI50 (HT-29): > 100 µM (inactive)
- GI50 (Hs-578T): > 100 µM (inactive)
- GI50 (IGROV-1): > 100 µM (inactive)
- GI50 (K562): > 100 µM (inactive)
- GI50 (KM12): > 100 µM (inactive)
- GI50 (LOX IMVI): > 100 µM (inactive)
- GI50 (M14): > 100 µM (inactive)
- GI50 (MCF7): > 100 µM (inactive)
- GI50 (MDA-MB-231): > 100 µM (inactive)
- GI50 (MDA-MB-435): > 100 µM (inactive)
- GI50 (MDA-N): > 100 µM (inactive)
- GI50 (MOLT-4): > 100 µM (inactive)
- GI50 (NCI-H226): > 100 µM (inactive)
- GI50 (NCI-H23): > 100 µM (inactive)
- GI50 (NCI-H460): > 100 µM (inactive)
- GI50 (NCI/ADR-RES): > 100 µM (inactive)
- GI50 (OVCAR-3): > 100 µM (inactive)
- GI50 (OVCAR-4): > 100 µM (inactive)
- GI50 (OVCAR-5): > 100 µM (inactive)
- GI50 (OVCAR-8): > 100 µM (inactive)
- GI50 (PC-3): > 100 µM (inactive)
- GI50 (RPMI-8226): > 100 µM (inactive)
- GI50 (RXF 393): > 100 µM (inactive)
- GI50 (SF-268): > 100 µM (inactive)
- GI50 (SF-295): > 100 µM (inactive)
- GI50 (SF-539): > 100 µM (inactive)
- GI50 (SK-MEL-28): > 100 µM (inactive)
- GI50 (SK-MEL-2): > 100 µM (inactive)
- GI50 (SK-MEL-5): > 100 µM (inactive)
- GI50 (SK-OV-3): > 100 µM (inactive)
- GI50 (SN12C): > 100 µM (inactive)
- GI50 (SNB-19): > 100 µM (inactive)
- GI50 (SNB-75): 68.4 µM (inactive)
- GI50 (SW-620): > 100 µM (inactive)
- GI50 (T47D): > 100 µM (inactive)
- GI50 (TK-10): > 100 µM (inactive)
- GI50 (U-251): > 100 µM (inactive)
- GI50 (UACC-257): > 100 µM (inactive)
- GI50 (UACC-62): > 100 µM (inactive)
- GI50 (UO-31): > 100 µM (inactive)
